# In patent publication US6391304B1, “Peptides derived from the ENV gene of the feline immunodeficiency virus and their applications” (Centre National de la Recherche Scientifique, priority 1997, dated 2002):
# “And” between values parts separate entries of the source, which are not always exact repeats. Equal entries are not always repeated. Ends that are not written are not given here.
# Columns and labels:
# FIV Wo isolate [1] = assay: Plasmatic viraemia by isolation of the virus in PBM cell culture; format: in vivo, cats
# Text: (§1) The cats are subjected to a virulence test, one week after the final immunization, by means of an intraperitoneal inoculation of 10 CID50 of FIV Wo isolate, one CID50 corresponding to the dose capable of infecting 50% of the cats.
# The plasmatic viraemia is quantified by culturing PBM cells (Ho D. D. et a., N. Engl. J. Med., 1989, 321, 1621-1625).
# The infection is estimated by determining the p25 by ELISA (Petcheck, IDEXX) in culture supernatants, obtained 14 and 21 days after the inoculation of different volumes of plasma (0.2, 2, 10, 40, 200 or 1000 μl). The final plasmatic dilution giving a positive culture is considered as the limit point.
# The plasmatic viraemia is expressed as TCDID50/ml of plasma (→doses capable of infecting 50% of the tissue cultures).
# For the cats immunized with the TM3-19 peptide and the control cats, the plasmatic viral load is evaluated 3 weeks after the test by isolating the virus.
# [2] = system: p25 recombinant FIV capsid protein; assay: Seroconversion ELISA after the virulence test, p25; format: in vivo, cats; conditions: for Binding of the sera to p25, 3 weeks after the virulence test / Binding of the sera to p25, 4 weeks after the virulence test / Binding of the sera to p25, 5 weeks after the virulence test: ELISA, seral dilution 1/100, individual cats
# Procedure: as §1
# (§2) The production on of antibodies is evaluated before the test by means of an ELISA using an immobilized peptide (SU2, SU5, TM2 or TM3-19) and immunoprecipitation. After the test, the seroconversion is monitored by an ELISA using immobilized envelope peptides and a recombinant FTV capsid protein.
# (§3) The ELISA with the immobilized envelope peptides corresponding to the immunogenic domains SU2 and TM2 and with the immobilized recombinant p25 protein (FIV capsid protein) is carried out as described in Avraméas A. et al. (Res. Virol., 1993, 144, 209-218).
# (§4) Microplates (Immunolon II, Dynatech) are coated with 0.5 μg/well for the peptides and with 0.1 μg/well for the p25 protein.
# (§5) The tests are carried out in duplicate and the results are expressed as average values.
# (§6) After the test, the seroconversion against the envelope peptides and the p25 protein is evaluated at serum dilutions of 1/25 and 1/100, respectively.
# (§7) The absorbance values (at 405 nm) are corrected by subtraction of the absorbance values obtained by binding with an immobilized control peptide.
# (§8) The tests are normalized with reference to the binding of a mixture of serum from cats infected with FIV with a peptide representing the immunodominant domain of the FIV transmembrane glycoprotein (TM2) (Avraméas A. et al., Res. Virol., 1993, 144, 209-218).
# FIV Wo isolate [3] = assay: Viral load in the tissues by competitive RT-PCR; format: in vivo, cats; conditions: 5 weeks after the test, FIG. 4
# Text: The cats are sacrificed five weeks after the virulence test. The lymphoid organs (spleen, thymus, axial lymphatic ganglia) are recovered and frozen in liquid nitrogen, for extraction of the RNA.
# Frozen spleen and thymus tissues are reduced to powder and immediately dispersed in the lysis buffer provided with the RNA extraction kit (RNeasy, Qiagene), with the aid of a tissue homogenizer (Ultra-Turrax). The frozen axillary lymphatic ganglia are dispersed directly in the lysis buffer; the RNA is then extracted using the RNeasy kit, according to the manufacturer's instructions.
# The contaminant DNA is removed by hydrolysis with DNase 1 (RQ1. RNase-free DNase, Promega).
# The viral load in the tissues is evaluated 5 weeks after the test by counting the number of copies of viral RNA in the axillary lymphatic ganglia and in the thymus by competitive RT-PCR.
# Given that the amplified fragment (amplicon) is located in the intron of the sub-genomic viral RNA, the copies of viral RNA counted in the tissues represent the complete transcripts, which are either intracellular or encapsidated in the extracellular viral particles.
# [4] = system: viral components (SU2 and TM2 peptides, recombinant capsid protein); assay: Antiviral humoral response after the virulence test (ELISA with viral components); format: in vivo; conditions: in comparison with the control cats
# Procedure: as §2, §3, §6
# After testing with the FIV Wo strain, most of the cats show a humoral response with respect to the viral components, as illustrated by the ELISA with the SU2 and TM2 peptides, derived from the external and transmembrane glycoproteins, respectively, and the recombinant capsid protein.
# SU2 envelope peptide = assay: Seroconversion ELISA after the virulence test, SU2 peptide; format: in vivo, cats
# Procedure: as §1, §2, §3, §4, §5, §6, §7, §8
# FIV Wo = assay: Test of reduction of viral infectivity in mitogen-activated feline PBM cells; format: cell-based; conditions: PBMC cells activated with a mitogen; serum dilution 1/5
# Procedure: For the test of reduction of the viral infectivity, serial dilutions ( 1/50, 1/100, 1/200 and 1/400) of a stock suspension of Wo isolate and a single dilution of serum (⅕) are prepared in a complete RPMI medium containing 50 μM of 2-ME and 10 mM of HEPES.
# The feline serum is mixed with an equal volume of the serial dilutions of virus and incubated in a final volume of 100 μl for one hour at 37° C.
# The concentration of PBM cells activated with a mitogen is adjusted to 4×10^6/ ml in a complete RPMI medium comprising 2-ME, HEPES and 200 U/ml of recombinant human IL-2. 0.1 ml of cell suspension (4×10^5 cells) is added to the tubes.
# After incubation overnight, the viral inoculum is recovered by washing the cells twice with 0.5 ml of complete RPMI medium.
# The cells are then resuspended fin 0.2 ml of feline serum diluted in a complete RDMI medium comprising 2-ME, HEPES and 100 U/ml of IL-2, and then transferred into the wells of 96-well microtitration plates.
# Half of the medium is replaced four days after the infection.
# 10 μl aliquots are recovered 7 days after the infection, for an analysis of the reverse transcriptase activity.
# Given that the Wo strain was not adapted by passage on CrFK cells, the influence of the antibodies was studied on the infection in feline PBMC cells.
# [5] = system: envelope glycoproteins of the Wo strain; assay: Immunoprecipitation of envelope glycoproteins by sera (infected PBM cells); format: in vivo; conditions: PBM cell lysates after acute infection with FIV Wo; group of four cats
# Text: (§9) The sera collected on the day of the test (at a dilution of 1/40) are used to immunoprecipitate the envelope glycoproteins derived from the metabolically labelled FL-4 cells and feline mononuclear cells (PBM cells) infected with the FIV Wo strain, as described in G. Pancino et al. (Virology, 1995, 206, 796-806).
# Given that the TM3-19 peptide, deduced from the Env sequence of the FIV Wo strain, comprises 4 different residues out of 19, relative to the Petaluma sequence, the capacity to immunoprecipitate sera before the test of the cats immunized with the TM3-19 peptide was tested against the envelope glycoproteins of the Wo strain, obtained from PBM cell lysates after acute infection with the FIV Wo strain.
# [6] = system: envelope glycoproteins of the Petaluma strain; assay: Immunoprecipitation of envelope glycoproteins by sera (metabolically labelled FL-4 cells); format: in vivo, FIV; conditions: lysates of chronically infected FL-4 cells; groups of four cats
# Text: as §9
# The recognition of the envelope glycoproteins is estimated by immunoprecipitation of the biosynthetically labelled envelope glycoprotein with sera collected on the day of the test, as summarized in Table I.
# [7] = ELISA, seral dilution 1/25, individual cats
substance,measurement,setting,value
"KKGLQQLQEWEDWVGWIGN [TM3-19, 19-amino-acid fragment of the TM3 domain of the FIV Wo Env transmembrane glycoprotein (759-777)]","Plasmatic viraemia, PBMC culture","FIV Wo isolate [1]; 3 weeks after the test with 10 CID50 of FIV Wo, individual cats",1 TCID50/ml of plasma (3×) and 1 × 10^2 TCID50/ml of plasma
same,reduction in the level of infectious virus in the plasma,"FIV Wo isolate [1]; three-quarters of the cats, 3 weeks after the test, versus control cats",about 3 logs
same,"Binding of the sera to p25, 3 weeks after the virulence test",[2],0 optical density (2×) and 0.2 optical density and 0.1 optical density
same,"Binding of the sera to p25, 4 weeks after the virulence test",[2],0.1 optical density and 2.3 optical density and 0 optical density (2×)
same,"Binding of the sera to p25, 5 weeks after the virulence test",[2],0.6 optical density and 2.3 optical density and 0 optical density and 0.1 optical density
same,response to the p25 protein,[2]; at 5 weeks after the test,"one cat (348) immunized with the TM3-19 peptide does not respond and among the other 3 cats, 2 animals (346, 349) develop only weak responses"
same,level of viral RNA in the spleen,FIV Wo isolate [3],particularly low in one cat (348)
same,levels of viral RNA in the axillary lymphatic ganglia,FIV Wo isolate [3],"lower in three cats (346, 348 and 349)"
same,development of an antiviral humoral response after the virulence test,[4],"weaker and retarded in 3 cats (346, 348, 349)"
same,antibody response with respect to the SU2 peptide,SU2 envelope peptide; 5 weeks after the test,none of the cats immunized with the TM3-19 peptide developed a detectable antibody response
same,"Binding of the sera to SU2, 3 weeks after the virulence test",SU2 envelope peptide; [7],0 optical density
same,"Binding of the sera to SU2, 4 weeks after the virulence test",SU2 envelope peptide; [7],0 optical density
same,"Binding of the sera to SU2, 5 weeks after the virulence test",SU2 envelope peptide; [7],0 optical density
same,effect of sera on infection with FIV Wo (reduction of infectivity),FIV Wo,do not modify the infection
same,cats whose sera precipitate the envelope protein of the Wo strain,[5],"only the sera of 2 cats (346, 347)"
"SU2: peptide of the SU2 domain of the FIV surface envelope glycoprotein, SEQ ID NO: 2, used as immunogen (RAISSWKQRNRWEWRPD)","Binding of the sera to p25, 3 weeks after the virulence test",[2],0 optical density
same,"Binding of the sera to p25, 4 weeks after the virulence test",[2],0.2 optical density (2×) and 0.4 optical density and 0 optical density
same,"Binding of the sera to p25, 5 weeks after the virulence test",[2],1.1 optical density and 1.3 optical density and 1.9 optical density and 0.2 optical density
same,effect of sera on infection with FIV Wo (reduction of infectivity),FIV Wo,do not modify the infection
same,cats whose sera immunoprecipitate the envelope glycoproteins of the Petaluma strain,[6],"3 of the 4 cats (324, 325 and 327)"
